Experimental data reported in PMC3525729 (Bioorganic & medicinal chemistry letters, 2012).
Substitutions are numbered along the chain they refer to.

How the values were obtained:
M1 = target: T1, M1 (Rattus norvegicus, UniProt P08482); test: M1 agonist screen; format: cell-based; conditions: for M1 activation when screened as an agonist: agonist mode
T1 sequence (P08482 1-460): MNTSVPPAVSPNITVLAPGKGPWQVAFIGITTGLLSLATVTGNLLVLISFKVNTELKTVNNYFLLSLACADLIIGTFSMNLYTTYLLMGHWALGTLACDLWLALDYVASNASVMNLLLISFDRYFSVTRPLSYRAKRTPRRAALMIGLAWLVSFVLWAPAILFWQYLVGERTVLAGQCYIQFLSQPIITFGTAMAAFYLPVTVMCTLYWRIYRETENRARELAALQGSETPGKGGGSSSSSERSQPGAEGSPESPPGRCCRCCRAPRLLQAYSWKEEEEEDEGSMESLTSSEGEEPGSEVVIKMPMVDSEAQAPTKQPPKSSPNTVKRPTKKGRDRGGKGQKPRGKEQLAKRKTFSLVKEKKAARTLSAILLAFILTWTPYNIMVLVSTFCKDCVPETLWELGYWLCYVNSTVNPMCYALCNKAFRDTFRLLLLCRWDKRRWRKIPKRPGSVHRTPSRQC

rM4 = target: T2, rM4 (Rattus norvegicus, UniProt P08485); test: CRC screened as antagonist in presence of ACh EC80, rM4; format: cell-based
T2 sequence (P08485 1-478): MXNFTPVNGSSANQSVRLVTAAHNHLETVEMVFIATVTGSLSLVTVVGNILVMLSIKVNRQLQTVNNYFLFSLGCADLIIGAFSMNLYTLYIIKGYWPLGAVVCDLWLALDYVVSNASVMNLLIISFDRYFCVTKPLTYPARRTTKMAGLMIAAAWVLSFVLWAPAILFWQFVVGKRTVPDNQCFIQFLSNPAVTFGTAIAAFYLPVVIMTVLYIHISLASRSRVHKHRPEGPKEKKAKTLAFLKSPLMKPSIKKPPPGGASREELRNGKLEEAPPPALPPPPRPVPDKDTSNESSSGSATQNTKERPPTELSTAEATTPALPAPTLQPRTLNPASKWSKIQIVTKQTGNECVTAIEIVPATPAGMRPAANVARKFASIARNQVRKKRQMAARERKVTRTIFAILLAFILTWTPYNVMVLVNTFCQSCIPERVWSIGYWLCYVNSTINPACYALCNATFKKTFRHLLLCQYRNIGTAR

[1] = cited from earlier work
M5 = target: T3, M5 (Homo sapiens, UniProt P08912); test: M5 antagonist screen; format: cell-based
T3 sequence (P08912 1-532): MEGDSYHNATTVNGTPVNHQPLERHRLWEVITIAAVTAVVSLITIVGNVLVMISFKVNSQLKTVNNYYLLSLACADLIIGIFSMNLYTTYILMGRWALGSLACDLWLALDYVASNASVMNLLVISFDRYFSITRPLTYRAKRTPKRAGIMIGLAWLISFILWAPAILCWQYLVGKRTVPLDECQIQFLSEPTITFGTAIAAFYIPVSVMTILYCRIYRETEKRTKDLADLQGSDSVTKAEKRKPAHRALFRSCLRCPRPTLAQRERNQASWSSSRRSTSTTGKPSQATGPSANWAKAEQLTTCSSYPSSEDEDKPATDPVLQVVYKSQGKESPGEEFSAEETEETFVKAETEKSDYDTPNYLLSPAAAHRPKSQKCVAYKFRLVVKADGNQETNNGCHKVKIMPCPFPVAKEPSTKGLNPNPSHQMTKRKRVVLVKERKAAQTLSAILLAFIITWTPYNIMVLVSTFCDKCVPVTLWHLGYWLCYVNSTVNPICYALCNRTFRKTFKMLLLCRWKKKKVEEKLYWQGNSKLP

M4 = target: T4, M4 (Homo sapiens, UniProt P08173); test: M4 antagonist screen; format: cell-based
T4 sequence (P08173 1-479): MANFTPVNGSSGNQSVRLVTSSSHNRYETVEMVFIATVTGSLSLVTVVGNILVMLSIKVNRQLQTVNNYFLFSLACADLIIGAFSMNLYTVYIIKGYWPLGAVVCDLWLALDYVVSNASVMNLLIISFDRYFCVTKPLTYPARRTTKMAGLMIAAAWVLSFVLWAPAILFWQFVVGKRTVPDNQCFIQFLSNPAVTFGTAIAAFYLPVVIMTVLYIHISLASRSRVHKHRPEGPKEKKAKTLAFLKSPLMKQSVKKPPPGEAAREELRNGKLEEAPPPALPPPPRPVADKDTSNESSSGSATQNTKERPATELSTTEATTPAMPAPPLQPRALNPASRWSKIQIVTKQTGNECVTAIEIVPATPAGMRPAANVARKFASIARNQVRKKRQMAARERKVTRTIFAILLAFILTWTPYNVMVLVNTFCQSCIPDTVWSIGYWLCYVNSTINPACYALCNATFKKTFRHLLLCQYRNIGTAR

rM5 = target: T5, rM5 (Rattus norvegicus, UniProt P08911); test: CRC screened in agonist mode, rM5; format: cell-based
T5 sequence (P08911 1-531): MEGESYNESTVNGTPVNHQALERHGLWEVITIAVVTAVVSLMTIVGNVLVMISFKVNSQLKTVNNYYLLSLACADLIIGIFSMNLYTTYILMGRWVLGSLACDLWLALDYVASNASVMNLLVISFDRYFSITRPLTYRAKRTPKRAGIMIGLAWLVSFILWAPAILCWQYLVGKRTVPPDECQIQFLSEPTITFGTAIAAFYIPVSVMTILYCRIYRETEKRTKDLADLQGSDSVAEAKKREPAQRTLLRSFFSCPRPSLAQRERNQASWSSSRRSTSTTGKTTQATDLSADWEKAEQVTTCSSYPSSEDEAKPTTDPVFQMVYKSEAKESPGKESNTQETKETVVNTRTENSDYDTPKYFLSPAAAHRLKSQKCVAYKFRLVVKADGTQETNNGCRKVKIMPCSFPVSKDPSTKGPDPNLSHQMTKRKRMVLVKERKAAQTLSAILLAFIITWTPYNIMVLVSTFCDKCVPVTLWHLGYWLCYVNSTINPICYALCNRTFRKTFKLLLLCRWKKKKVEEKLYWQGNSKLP

rM3 = rM3 (Rattus norvegicus, UniProt P08483); test: CRC screened as antagonist in presence of ACh EC80, rM3; format: cell-based; conditions: antagonist mode
Sequence of rM3 (P08483 whole entry): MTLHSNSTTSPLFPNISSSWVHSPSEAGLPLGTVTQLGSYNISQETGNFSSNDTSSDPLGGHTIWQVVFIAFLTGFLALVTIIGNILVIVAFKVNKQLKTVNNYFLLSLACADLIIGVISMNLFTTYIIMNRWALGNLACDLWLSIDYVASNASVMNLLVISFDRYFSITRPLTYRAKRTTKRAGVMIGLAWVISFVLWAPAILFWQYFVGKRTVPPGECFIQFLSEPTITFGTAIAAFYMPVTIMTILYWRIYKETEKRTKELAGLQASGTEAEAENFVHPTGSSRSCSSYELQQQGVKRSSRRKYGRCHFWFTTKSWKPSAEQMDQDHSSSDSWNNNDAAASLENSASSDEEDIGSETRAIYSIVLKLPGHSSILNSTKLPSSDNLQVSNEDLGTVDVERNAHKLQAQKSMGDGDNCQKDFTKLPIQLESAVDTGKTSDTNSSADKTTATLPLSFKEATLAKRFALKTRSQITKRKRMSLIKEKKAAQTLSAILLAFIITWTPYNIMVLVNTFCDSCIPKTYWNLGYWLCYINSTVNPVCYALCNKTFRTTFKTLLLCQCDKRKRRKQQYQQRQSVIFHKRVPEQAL

hM1 = target: T6, hM1 (Homo sapiens, UniProt P11229); conditions: screened as agonist
T6 sequence (P11229 1-460): T1 sequence (P08482 1-460) with V5A, S254T, S309P, K320R, G337A, V413I

rM2 = target: T7, rM2 (Rattus norvegicus, UniProt P10980); test: CRC screened as antagonist in presence of ACh EC80, rM2; format: cell-based; conditions: antagonist mode
T7 sequence (P10980 1-466): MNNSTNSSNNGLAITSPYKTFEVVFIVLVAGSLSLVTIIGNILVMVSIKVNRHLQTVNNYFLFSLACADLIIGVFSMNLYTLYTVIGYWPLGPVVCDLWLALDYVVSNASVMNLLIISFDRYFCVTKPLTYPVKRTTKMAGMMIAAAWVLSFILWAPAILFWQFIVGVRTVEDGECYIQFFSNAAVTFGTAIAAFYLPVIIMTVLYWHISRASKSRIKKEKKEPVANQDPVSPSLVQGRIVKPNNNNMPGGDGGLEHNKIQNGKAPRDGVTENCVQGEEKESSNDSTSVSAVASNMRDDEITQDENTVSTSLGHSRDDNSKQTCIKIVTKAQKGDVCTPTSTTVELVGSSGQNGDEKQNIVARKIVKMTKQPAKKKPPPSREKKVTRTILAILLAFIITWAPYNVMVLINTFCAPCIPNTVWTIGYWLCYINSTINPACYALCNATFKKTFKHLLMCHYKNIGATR

hM2 = target: T8, hM2 (Homo sapiens, UniProt P08172); test: Human CRC screened as antagonist, hM2; format: cell-based; conditions: ACh EC80
T8 sequence (P08172 1-466): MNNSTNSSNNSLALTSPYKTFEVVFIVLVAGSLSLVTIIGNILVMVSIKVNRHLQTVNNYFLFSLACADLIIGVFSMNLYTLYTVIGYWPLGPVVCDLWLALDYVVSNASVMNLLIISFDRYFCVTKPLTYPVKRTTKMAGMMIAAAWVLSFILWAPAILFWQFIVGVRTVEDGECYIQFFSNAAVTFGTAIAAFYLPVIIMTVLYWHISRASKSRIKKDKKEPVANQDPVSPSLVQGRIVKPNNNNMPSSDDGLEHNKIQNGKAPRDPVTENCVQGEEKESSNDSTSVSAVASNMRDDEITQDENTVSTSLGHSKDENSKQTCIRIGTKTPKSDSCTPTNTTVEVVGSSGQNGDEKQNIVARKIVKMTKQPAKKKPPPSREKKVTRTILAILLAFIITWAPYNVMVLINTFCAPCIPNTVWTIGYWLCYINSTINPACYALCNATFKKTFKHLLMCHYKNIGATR

Rat M1 = target: T9, Rat M1 (Rattus norvegicus, UniProt P08482); test: CRC screened as antagonist in presence of ACh EC80, Rat M1; format: cell-based; conditions: antagonist mode
T9 sequence (P08482 1-460): T1 sequence (P08482 1-460)

## Cc1ccccc1CN1CCC(N2CCC(n3c(=O)[nH]c4ccccc43)C(F)C2)CC1 (stereo not shown) [compound 9]
M1
  M1 activation when screened as an agonist: neither 9 nor 10 elicited M1 activation
rM4
  IC50: > 10 µM
rM4; antagonist mode, ACh EC80
  rM4 % ACh Max: 26.6±3.4 % ACh Max
  rM4 pIC50: 5.29±0.09
[1]
  pKa of the central piperidine nitrogen atom: 9.4

## CCOC(=O)N1CCC(N2CCC[C@@H](NC(=O)c3ccc(C(F)(F)F)nc3)C2)CC1 [compound 16]
M5
  IC50: > 10 µM
M4
  IC50: > 10 µM

## Cc1ccccc1CN1CCC(N2CCC(n3c(=O)[nH]c4ccccc43)CC2)CC1 [TBPB]
rM5
  EC50: > 30 µM
rM3
  rM3 pIC50: 5.26
hM1
  hM1 % ACh Max: 40 % ACh Max
rM2
  rM2 pIC50: 5.89
hM2
  hM2 pIC50: 5.46

## CCOC(=O)N1CCC(N2CCC[C@@H](NC(=O)c3cccc(Br)c3)C2)CC1 [compound 14]
M1
  M1 pEC50: 5.69±0.08

## Cc1ccccc1CN1CCC(N2CC3CC(n4c(=O)[nH]c5ccccc54)CC3C2)CC1 (stereo not shown) [compound 10]
Rat M1
  Rat M1 % ACh Max: −1.07±1.3 % ACh Max
  Rat M1 pIC50: 5.20±0.04
M1
  M1 activation when screened as an agonist: neither 9 nor 10 elicited M1 activation
